Consider 8 molecules from the Kinase Knowledgebase extract (Sharma et al. 2016).

For one test, the target named is MAPK14 (UniProt Q16539). Put plainly: p38-alpha Inhibition.
A further test concerns the target MAPK14 (human) (UniProt Q16539). The experiment in a line: p38 --- TNFalpha Release Inhibition. The settings on record: monocyte.
Another test has as its system MAPK14 (Lewis rat). The experiment in a line: Adjuvant-Induced Arthritis Model.

pIC50: −log10 of the molar value. Where “and” joins values, the source holds several entries; their conditions need not be identical. Equal values may be shown once.

What is called inhibition is the percentage by which the read-out fell short of the control. One may read the pIC50 as −log10 of the IC50, conventionally taken in molar units. Lower therefore signals a large IC50.

Chain of MAPK14 (Q16539 whole entry, looked up): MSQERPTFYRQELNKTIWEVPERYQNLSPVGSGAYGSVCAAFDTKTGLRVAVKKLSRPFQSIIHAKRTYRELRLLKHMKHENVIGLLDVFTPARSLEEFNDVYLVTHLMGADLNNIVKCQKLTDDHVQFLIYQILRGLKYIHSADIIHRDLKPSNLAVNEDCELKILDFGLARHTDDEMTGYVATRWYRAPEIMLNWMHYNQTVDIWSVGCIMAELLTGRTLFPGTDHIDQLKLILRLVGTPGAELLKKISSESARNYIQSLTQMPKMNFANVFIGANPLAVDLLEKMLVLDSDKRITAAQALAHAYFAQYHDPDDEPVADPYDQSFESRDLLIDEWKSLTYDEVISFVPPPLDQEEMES
Chain of MAPK14 (human) (Q16539 whole entry, looked up): as above

In the case of `O=c1c(-c2ccncc2)c(-c2ccc(F)cc2)[nH]n1-c1ccc(Cl)cc1`, the inhibition against MAPK14 (concentration not given here) came out at 43%.

In turn, `CS(=O)(=O)c1ccc(-c2cc(-c3ccncc3)c(-c3ccc(F)cc3)[nH]2)cc1` showed a pIC50 at MAPK14 (human) of 7.64.

Molecule `C[S+]([O-])c1ccc(-c2cc(-c3ccncc3)c(-c3ccc(F)cc3)[nH]2)cc1` (stereo not given) gave a pIC50 against MAPK14 (human) of 7.19. For the same molecule, in the test with MAPK14 (Lewis rat), the ID50 worked out at 7.4 mg/kg/day; the score is 3.6 and 1.6.

Molecule `Fc1ccc(-c2[nH]c(-c3ccc(Cl)cc3)cc2-c2ccccn2)cc1` had a negative-log IC50 (pIC50) against MAPK14 below 5.00.

Regarding `Fc1ccc(-c2[nH]c(-c3ccc(Br)cc3)cc2-c2ccncc2)cc1`, the pIC50 against MAPK14 is 7.00.

In the case of `COc1ccc2c(c1)c(CC(=O)O)c(C)n2C(=O)c1ccc(Cl)cc1`, in the test on MAPK14 (Lewis rat), the score was 4.9 and 2.9.

As for `CCOC(=O)c1ccc(-c2[nH]c(-c3ccccc3)cc2-c2ccncc2)cc1`, at MAPK14, the pIC50 was below 5.00.

The molecule `CC(C)(C)Oc1ccc(-c2[nH]c(-c3ccccc3)cc2-c2ccncc2)cc1` showed a negative-log IC50 (pIC50) against MAPK14 below 6.00.
